Test results published in paper PMC3303948 (Steroids, 2012).
Values joined by “and” are separate entries in the source; they are usually repeats but may differ in a detail not shown here. Equal values may be shown once.

Key:
[1] = Plasma pharmacokinetics of 1,25; type: in vivo, nu/nu mice
CYP24 mRNA [2] = experiment: CYP24 mRNA expression in H292 xenografts in vivo
CYP24 mRNA [3] = experiment: CYP24 mRNA expression in H292 cells in vitro
Tumor = type: in vivo, nu/nu mice
[4] = 0.5 µg/kg once weekly; oncology setting; cited from earlier work
[5] = Compartmental analysis of plasma and tumor 1,25
CYP27B1 mRNA = CYP27B1 mRNA expression in H292 cells in vitro; type: cell-based, human; conditions: data not shown
CYP24 [6] = conditions: cited from earlier work
CYP24 [7] = conditions: in vitro; 50 nM CTA091; ref Zhang et al., manuscript under review; cited from earlier work
[8] = ref personal communication, M. Petkovich; cited from earlier work
[9] = female, nu/nu, mouse, plasma, ip, 20 ug/kg
[10] = female, nu/nu, mouse, tumor (H292 xenograft), ip, 20 ug/kg
[11] = compartmental model, tumor volume fixed at 1 L/kg
[12] = rats, a similar dose (to 250 µg/kg)
[13] = 250 µg/kg CTA091 i.p. with 20 µg/kg 1,25(OH)2D3 versus 1,25(OH)2D3 alone
[14] = compartmental model, 250 µg/kg CTA091

With `C=C1/C(=C\C=C2/CCC[C@]3(C)[C@@H]([C@H](C)CCCC(C)(C)O)CC[C@@H]23)C[C@@H](O)C[C@@H]1O` [1,25(OH)2D3, 1,25-dihydroxyvitamin D3] the AUC(0-inf) [1, 9] was 69.1 ng·h/mL, the AUC(0-t) [1, 9] was 67.4 ng·h/mL and the CL/F [1, 9] was 4.82 mL/min/kg. For the same molecule, the Cmax [1, 9] was 21.6 ng/mL, the Tmax [1, 9] was 0.25 h and the Vd/F [1, 9] was 0.592 L/kg. It also gave a half-life [1, 9] of 1.42 h, a k el [1, 9] of 0.000136 s⁻¹ and a Tmax ([1]; female, nu/nu, mouse, plasma, ip, 20 µg/kg) of 0.25 to 0.5 h. The “Increase in tumor CYP24 mRNA levels” value (CYP24 mRNA [2]; single dose of 1,25(OH)2D3, 4 h post-treatment) was “approximately 4 fold”, the “Increase in tumor CYP24 mRNA levels” value (CYP24 mRNA [2]; single dose of 1,25(OH)2D3, after 8 h) was about 15 fold and the “Induction of CYP24 expression in H292 cells in vitro” value (CYP24 mRNA [3]; 1 nM 1,25(OH)2D3 (Fig. 1A)) was “induced to express CYP24”. The “Maximum tumor concentration of 1,25(OH)2D3” value (Tumor; H292 tumor, 20 µg/kg 1,25(OH)2D3 i.p.) was 1.70 ng/mL, the “Tumor Cmax of 1,25(OH)2D3” value (Tumor; H292 tumor, 20 µg/kg 1,25(OH)2D3 i.p. alone or with 250 µg/kg CTA091) was 1.7 ng/g and 1.70 ng/g and the Tmax (Tumor; [10]) was 2 h. The half-life (Tumor; [10]) was 1.95 h, the k el (Tumor; [10]) was 9.86e-05 s⁻¹ and the “Peak tumor concentration of 1,25(OH)2D3 (molar)” value (Tumor; given that 1 g of tumor has a volume of 1 mL, without or with CTA091) was 3.8 nM. The “Safety of high-dose 1,25(OH)2D3” value [4] was “safely delivered”, the “kct, transfer rate constant from the central to the tumor compartment, Estimate (%SE)” value [5, 11] was 0.454 (18) h^−1 and the “ktc, transfer rate constant from the tumor to the central compartment, Estimate (%SE)” value [5, 11] was 1.24 (22) h^−1. The CL/F [5, 9] was 4.85 mL/min/kg, the Vd/F [5, 9] was 0.653 L/kg and the half-life [5, 9] was 1.56 h. It also gave a k el [5, 9] of 0.000124 s⁻¹, a k el ([5]; female, nu/nu, mouse, tumor (H292 xenograft), intraperitoneal, 20 µg/kg) of 0.000292 s⁻¹ and a half-life [5, 10] of 0.661 h. The k el [5, 10] was 0.000289 s⁻¹.

In the case of `C=C1/C(=C\C=C2/CCC[C@]3(C)[C@@H]([C@H](C)CCS(=N)(=O)c4ccccc4)CC[C@@H]23)C[C@@H](O)C[C@@H]1O` (stereo partly drawn) [CTA091], the “Effect on CYP27B1 mRNA expression” value (CYP27B1 mRNA) is given as “no effect”, the “Increase in rat serum 1,25(OH)2D3 Cmax” value (CYP24 [6]; rat, 500 µg/kg CTA091) is given as 1.5 fold and the “Increase in rat serum 1,25(OH)2D3 exposure” value (CYP24 [6]; rat, 500 µg/kg CTA091) is given as 1.4 fold. For the same molecule, the “Effect on endogenous 1,25(OH)2D3 levels” value (CYP24 [6]; [12]) was “increased endogenous 1,25(OH)2D3 levels”, the “Effect on serum PTH levels” value (CYP24 [6]; [12]) was “decreased serum PTH levels” and the “+/− CTA091 Ratio, plasma AUC0-inf of 1,25(OH)2D3” value [1, 13] was 1.5. For the same molecule, the “+/− CTA091 Ratio, plasma AUC0–8h of 1,25(OH)2D3” value [1, 13] was 1.4, the “+/− CTA091 Ratio, plasma Cl/F of 1,25(OH)2D3” value [1, 13] was 0.68 and the “+/− CTA091 Ratio, plasma Cmax of 1,25(OH)2D3” value [1, 13] was 1.6. For the same molecule, the “+/− CTA091 Ratio, plasma Kel of 1,25(OH)2D3” value [1, 13] was 0.86, the “+/− CTA091 Ratio, plasma Tmax of 1,25(OH)2D3” value [1, 13] was 2 and the “+/− CTA091 Ratio, plasma Vd/F of 1,25(OH)2D3” value [1, 13] was 0.79. For the same molecule, the “+/− CTA091 Ratio, plasma t1/2 of 1,25(OH)2D3” value [1, 13] was 1.2, the “Increase in 1,25(OH)2D3 plasma levels (Cmax) by co-administered CTA091” value ([1]; 250 µg/kg CTA091 with 20 µg/kg 1,25(OH)2D3 i.p.) was 1.6 fold and the “Increase in 1,25(OH)2D3 plasma terminal half-life by CTA091” value ([1]; 250 µg/kg CTA091 with 20 µg/kg 1,25(OH)2D3 i.p., non-compartmental) was “approximately 1.2 fold”. The “Effect on 1,25(OH)2D3-mediated transcription” value (CYP24 [7]) was “significantly increases 1,25(OH)2D3-mediated transcription”, the “Inhibition of 1,25(OH)2D3 catabolism” value (CYP24 [7]) was “consistently and maximally inhibits 1,25(OH)2D3 catabolism” and the “Increase of the transcriptional induction of CYP24 by 1,25(OH)2D3” value (CYP24 mRNA [3]; H292 cells, CTA091 with 1,25(OH)2D3, data not shown) was “approximately 4 fold”. The “Effect of CTA091 alone on CYP24 gene expression” value (CYP24 mRNA [3]; H292 cells, data not shown) was “no effect”, the “+/− CTA091 Ratio, tumor/plasma AUC0–h of 1,25(OH)2D3” value (Tumor; [13]) was 1.8 and the “+/− CTA091 Ratio, tumor/plasma Cmax of 1,25(OH)2D3” value (Tumor; [13]) was 1.7. The “Increase in 1,25(OH)2D3 tumor levels by co-administered CTA091” value (Tumor; 250 µg/kg CTA091 with 20 µg/kg 1,25(OH)2D3 i.p., H292 tumor) was 2.6 fold, the “Decrease in plasma clearance of 1,25(OH)2D3 by CTA091” value [5, 14] was 20% and the “Decrease in tumor clearance of 1,25(OH)2D3 by CTA091” value [5, 14] was 46%. The “ktc/(ktc+ ktumor elim)” value ([5]; compartmental model, tumor clearance with versus without CTA091) was 0.54 and the “Plasma clearance of CTA091 relative to 1,25(OH)2D3” value [8] was “cleared from plasma more rapidly than 1,25(OH)2D3”.
